Data reported in patent publication US20210196724A1, “BIARYL COMPOSITIONS AND METHODS FOR MODULATING A KINASE CASCADE” (Athenex, Inc., priority 2016, published 2021).

Columns and labels:
Assay type in all cases: cell-based
MX-1 cells = test: CellTiter-Glo cell viability, MX-1; details: 72 h
Method: (§1) The cell viability of 50 cancer cell lines was studied after treatment with Compound 121. Inhibition concentration values at 50% (IC50) were determined using CellTiter-Glo luminescent cell viability assay after incubation with different compound concentrations. GI50 values were determined according to the examples described above. Each cell line was treated with Compound 121, a standard chemotherapy drug as a reference control, and culture medium as a vehicle control.
(§2) All cells were cultured in media supplemented with 10-15% FBS at 37° C. in the presence of 5% CO2 and at 95% humidity. The culture medium was purchased from GIBCO or Sigma, USA. Cisplatin was chosen as the reference control and purchased from Hospira Australia Pty Ltd. The cell lines studied are presented in Table 5.
(§3) Cells were harvested during a logarithmic growth period and cell number count was determined using Count-star. Cell concentrations were adjusted to 4.44×10^4 cells/mL with respective culture medium. 90 μL of cell suspensions were added to two 96-well plates (plates A and B) with a final cell density of 4×10^3 cells/well.
(§4) 10 μL of culture medium was added to each well of plate A for TO reading. The plate was allowed to equilibrate at room temperature for approximately 30 min. 50 μL of CellTiter-Glo was added to each well and the contents were mixed for 5 min on an orbital shaker to induce cell lysis. The plate was allowed to incubate at room temperature for 20 min to stabilize luminescent signal.
(§5) 10 μM Compound 121 in media was serially diluted 3.16-fold to achieve 9 dose levels. Similarly, 100 μM reference control in media was serially diluted 3.16-fold to prepare reference control solutions. 10 μL drug solution and 10 μL of reference control was dispensed into each well in plate B.
(§6) Test plate B was incubated for 72 h in a humidified incubator at 37° C. in the presence of 5% CO2 and then subjected to CTG assay. The plate was allowed to equilibrate at room temperature for about 30 min. 50 μL of CellTiter-Glo was added to each well and the contents were mixed for 5 min on an orbital shaker to induce cell lysis. The plate was allowed to incubate at room temperature for 20 min to stabilize luminescent signal.
(§7) IC50 and GI50 values for each of the 50 cell lines are presented in Table 6 and were calculated based on the dose-response curves depicted in FIGS. 1-50. The dose-response curves were fitted using nonlinear regression model with a sigmoidal dose response. The formula for calculating survival rate was calculated by the formula:
(§8) Survival rate (%)=(LumTest article−LumMedium control)/(LumNone treated−LumMedium control)×100.

HuCCT1 cells = test: CellTiter-Glo cell viability, HuCCT1; details: 72 h
Method: as §1, §2, §3, §4, §5, §6, §7, §8

SK-MEL-28 cells = test: CellTiter-Glo cell viability, SK-MEL-28; details: 72 h
Method: as §1, §2, §3, §4, §5, §6, §7, §8

HT-29 cells = test: CellTiter-Glo cell viability, HT-29; details: 72 h
Method: as §1, §2, §3, §4, §5, §6, §7, §8

EBC-1 cells = test: CellTiter-Glo cell viability, EBC-1; details: 72 h
Method: as §1, §2, §3, §4, §5, §6, §7, §8

SK-OV-3 cells = test: CellTiter-Glo cell viability, SK-OV-3; details: 72 h
Method: as §1, §2, §3, §4, §5, §6, §7, §8

MES-SA/DX5 cells = test: CellTiter-Glo cell viability, MES-SA/DX5; details: 72 h
Method: as §1, §2, §3, §4, §5, §6, §7, §8

AsPC-1 cells = test: CellTiter-Glo cell viability, AsPC-1; details: 72 h
Method: as §1, §2, §3, §4, §5, §6, §7, §8

U251 cells = test: CellTiter-Glo cell viability, U251; details: 72 h
Method: as §1, §2, §3, §4, §5, §6, §7, §8

MDA-MB-468 cells = test: CellTiter-Glo cell viability, MDA-MB-468; details: 72 h
Method: as §1, §2, §3, §4, §5, §6, §7, §8

OVCAR-3 cells = test: CellTiter-Glo cell viability, OVCAR-3; details: 72 h
Method: as §1, §2, §3, §4, §5, §6, §7, §8

NCI-H1975 cells = test: CellTiter-Glo cell viability, NCI-H1975; details: 72 h
Method: as §1, §2, §3, §4, §5, §6, §7, §8

JEG-3 cells = test: CellTiter-Glo cell viability, JEG-3; details: 72 h
Method: as §1, §2, §3, §4, §5, §6, §7, §8

K-562 cells = test: CellTiter-Glo cell viability, K-562; details: 72 h
Method: as §1, §2, §3, §4, §5, §6, §7, §8

RPMI 8226 cells = test: CellTiter-Glo cell viability, RPMI 8226; details: 72 h
Method: as §1, §2, §3, §4, §5, §6, §7, §8

SNU-5 cells = test: CellTiter-Glo cell viability, SNU-5; details: SN1J-5 cells, 72 h
Method: as §1, §2, §3, §4, §5, §6, §7, §8

HCT-15 cells = test: CellTiter-Glo cell viability, HCT-15; details: 72 h
Method: as §1, §2, §3, §4, §5, §6, §7, §8

HUH-7 cells = test: CellTiter-Glo cell viability, HUH-7; details: 72 h
Method: as §1, §2, §3, §4, §5, §6, §7, §8

FaDu cells = test: CellTiter-Glo cell viability, FaDu; details: 72 h
Method: as §1, §2, §3, §4, §5, §6, §7, §8

143B cells = test: CellTiter-Glo cell viability, 143B; details: 72 h
Method: as §1, §2, §3, §4, §5, §6, §7, §8

PC-3 cells = test: CellTiter-Glo cell viability, PC-3; details: 72 h
Method: as §1, §2, §3, §4, §5, §6, §7, §8

[1] = top conc. 10 μM Compound 121, 100 μM cisplatin

## N.N.[Cl][Pt][Cl] [Cisplatin, reference compound]
MX-1 cells; read-out: Absolute GI50
  GI50: 5.69 µM
MX-1 cells; read-out: Absolute IC50
  IC50: 7.12 µM
MX-1 cells; [1]
  % inhibition at top conc.: 98.97%
HuCCT1 cells; read-out: Absolute GI50
  GI50: 6.59 µM
HuCCT1 cells; read-out: Absolute IC50
  IC50: 8.44 µM
HuCCT1 cells; [1]
  % inhibition at top conc.: 90.42%
SK-MEL-28 cells; read-out: Absolute GI50
  GI50: 7.09 µM
SK-MEL-28 cells; read-out: Absolute IC50
  IC50: 8.9 µM
SK-MEL-28 cells; [1]
  % inhibition at top conc.: 99.29%
HT-29 cells; read-out: Absolute GI50
  GI50: 8.78 µM
HT-29 cells; read-out: Absolute IC50
  IC50: 9.8 µM
HT-29 cells; [1]
  % inhibition at top conc.: 89.05%
EBC-1 cells; read-out: Absolute GI50
  GI50: 11.8 µM
EBC-1 cells; read-out: Absolute IC50
  IC50: 17.3 µM
EBC-1 cells; [1]
  % inhibition at top conc.: 84.49%
SK-OV-3 cells; read-out: Absolute GI50
  GI50: 5.08 µM
SK-OV-3 cells; read-out: Absolute IC50
  IC50: 6.69 µM
SK-OV-3 cells; [1]
  % inhibition at top conc.: 81.79%
MES-SA/DX5 cells; read-out: Absolute GI50
  GI50: 1.96 µM
MES-SA/DX5 cells; read-out: Absolute IC50
  IC50: 2.21 µM
MES-SA/DX5 cells; [1]
  % inhibition at top conc.: 99.94%
AsPC-1 cells; read-out: Absolute GI50
  GI50: 2.73 µM
AsPC-1 cells; read-out: Absolute IC50
  IC50: 3.31 µM
AsPC-1 cells; [1]
  % inhibition at top conc.: 72.39%
U251 cells; read-out: Absolute GI50
  GI50: 3.07 µM
U251 cells; read-out: Absolute IC50
  IC50: 3.98 µM
U251 cells; [1]
  % inhibition at top conc.: 87.70%
MDA-MB-468 cells; read-out: Absolute GI50
  GI50: 0.65 µM
MDA-MB-468 cells; read-out: Absolute IC50
  IC50: 0.93 µM
MDA-MB-468 cells; [1]
  % inhibition at top conc.: 99.91%
OVCAR-3 cells; read-out: Absolute GI50
  GI50: 3.81 µM
OVCAR-3 cells; read-out: Absolute IC50
  IC50: 4.29 µM
OVCAR-3 cells; [1]
  % inhibition at top conc.: 91.14%
NCI-H1975 cells; read-out: Absolute GI50
  GI50: 5.52 µM
NCI-H1975 cells; read-out: Absolute IC50
  IC50: 6.93 µM
NCI-H1975 cells; [1]
  % inhibition at top conc.: 98.75%
JEG-3 cells; read-out: Absolute GI50
  GI50: 5.5 µM
JEG-3 cells; read-out: Absolute IC50
  IC50: 9.4 µM
JEG-3 cells; [1]
  % inhibition at top conc.: 99.90%
K-562 cells; read-out: Absolute GI50
  GI50: 4.21 µM
K-562 cells; read-out: Absolute IC50
  IC50: 4.51 µM
K-562 cells; [1]
  % inhibition at top conc.: 97.94%
RPMI 8226 cells; read-out: Absolute GI50
  GI50: 2.38 µM
RPMI 8226 cells; read-out: Absolute IC50
  IC50: 3.62 µM
RPMI 8226 cells; [1]
  % inhibition at top conc.: 99.76%
SNU-5 cells; read-out: Absolute GI50
  GI50: 2.15 µM
SNU-5 cells; read-out: Absolute IC50
  IC50: 2.5 µM
SNU-5 cells; [1]
  % inhibition at top conc.: 97.80%
HCT-15 cells; read-out: Absolute GI50
  GI50: 4.27 µM
HCT-15 cells; read-out: Absolute IC50
  IC50: 4.76 µM
HCT-15 cells; [1]
  % inhibition at top conc.: 98.22%
HUH-7 cells; read-out: Absolute GI50
  GI50: 2.61 µM
HUH-7 cells; read-out: Absolute IC50
  IC50: 3.54 µM
HUH-7 cells; [1]
  % inhibition at top conc.: 93.92%
FaDu cells; read-out: Absolute GI50
  GI50: 1.96 µM
FaDu cells; read-out: Absolute IC50
  IC50: 2.25 µM
FaDu cells; [1]
  % inhibition at top conc.: 98.16%
143B cells; read-out: Absolute GI50
  GI50: 1.02 µM
143B cells; read-out: Absolute IC50
  IC50: 1.08 µM
143B cells; [1]
  % inhibition at top conc.: 99.94%
PC-3 cells; read-out: Absolute GI50
  GI50: 4.68 µM
PC-3 cells; read-out: Absolute IC50
  IC50: 5.94 µM
PC-3 cells; [1]
  % inhibition at top conc.: 83.88%
